Results reported in patent US9775835B2 (priority 2012, dated 2017).
Like-named read-outs stand apart in the source and are kept apart here.

Experiments:
HIV (strain NL4-3) = assay: HIV cell based assay (Level 1 / Level 2 Screen; CFAR assay): 293T transfection, TZM-bl infection, luciferase; design: species or system HIV-1; conditions: for Anti-HIV bioactivity of hits and analogs: second round with analogs, FIGS. 12 A, B, C
Protocol: Five hundred of the 1000 small molecule hits, having the highest binding affinity with the ASL's hypermodifications, were selected for screening at high concentration against HIV infected mammalian cells (FIG. 10). Briefly, toxicity was first assessed in 293T cells in 96-well plates (10^4 cells/well) by adding 50, 5 and 0.5 μM of small molecules in triplicate at each concentration. After two days, cells were assessed for poor growth versus control cells. Once the concentration of the small molecules at which the cells looked normal was established, these molecules were screened for anti-HIV activity through a transfection/infection protocol. An infectious molecular clone of HIV (strain NL4-3) was transfected into 293T cells using FuGene6 (Roche). After four hours, the cells were split into 96-well plates (10^4 cells/well) and the small molecules were added at the appropriate concentration in triplicate. After 48 hours of incubation of cells in the presence of the small molecules, virus-containing medium (50 μL) was removed from each well and transferred into a fresh 96-well plate containing TZM-bl cells for infection (10^4 cells/well). After 48 hours, the cells were assayed for luciferase expression. Controls were untransfected 293T cells and transfected cells without the small molecules added. Results from various small molecules with the best inhibition of HIV are shown in (FIG. 10). Active small molecules 2493, 9324, 8317, 2725, 3643, 2491, 12327, 14094, 12204, 12744, 12745, 12542, 18198, 18200, 8391, 6188, 16286 and 2712 have 80-95% inhibitory effect on the HIV propagation. These small molecules with bioactivity against HIV propagation are an example of some the hits further tested in a concentration-dependent screening.
Bioactive molecules selected in Level 1 Screen were tested using the cell based assay in a concentration (dose)-dependent manner for their ability to inhibit HIV propagation (FIG. 11). The HIV cell based assay experimental protocol described in Level 1 screen was used to conduct the Level 2 Screen. […] In addition to the concentration-dependent, cell based assay, the inhibitory activities of the active molecules identified in Screen Level 1 were also assessed using the MBS assay. This assay has been developed and standardized to mimic the unique properties characteristic of the HIV viral protein recruitment and preparation of the human host tRNA3^Lys as primer of reverse transcription. Thus, the cell-based assay and the “MBS” assay were used to confirm the mechanism of action of the hits against the functional interaction of htRNA3^Lys with HIV proteins. The MBS is a “mix and measure” assay that consists of the formation of a complex between the fluorescent peptide P6 and the fully modified anticodon stem and loop of htRNA3^Lys. The concentration of the small molecules was 150 μM i.e. 300 fold of that of P6. […] In the presence of various selected active molecules, inhibition of the complex between P6 and hASL3^Lys was observed (FIGS. 12 A, B and C). The results of these experiments allowed identification and concentration towards a smaller pool of active molecules.
In order to confirm the activity of the small molecules showing potential anti-HIV inhibition, a second round of testing using their analogs (˜20 analogs were chosen for each selected active small molecule) was initiated using the same cell based assay employed in Level 1 Screen and Level 2 Screen. […] The quality and structure of the small molecule hits and their respective analogs were confirmed by NMR and Liquid Chromatography coupled with Mass Spectrometry (LC-MS).
Dose response data of the active molecules were generated by running the biochemical and functional assays at varying concentration. The potency properties which is one of the characteristics that defines a hit, is evaluated based on the criteria that potency (IC50)<3 μM in the MBS assay and EC50<10 μM in the HIV cell based assay (See FIG. 19). […]

[1] = tested on: HIV strains NLA3, HXB and JR-CSF; assay: HIV strain screening; type: cell-based; conditions: FIG. 13
From the text: Small molecules were also screened for their effectiveness against various HIV strains. For example, the effects of small molecules of interest on HIV strains NLA3, HXB and JR-CSF were studied. […] FIG. 13. Further, small molecules were screened for their effectiveness against other HIV drugs that have different modes of action. For example, various small molecules of interest in the initial screen were studied for their effectiveness relative to protease inhibitors (Saquinavir by Roche) and reverse-transciptase inhibitors (Nevirapine by Boehringer Ingelheim) against various strains, including tri-therapy resistant HIV strains. FIGS. 13 and 14. In one specific study, the effect of small molecules on cell culture HIV viral propagation was compared to no drug (by reviewing % Relative Luminescence Unit (RLU)). Small molecules were also compared to Saquinavir and Nevirapine in both standard HIV strain and Tri-therapy resistant HIV strains. FIG. 14.

hASL3^Lys = assay: Circular dichroism of NCp7 and P6 complexes with hASL3^Lys; design: species or system human; conditions: decrease in CD ellipticity with increasing amounts, FIG. 7
[2] = target: hASL3^Lys-mcm^5s^2U34;ms^2t^6A37;Ψ39; assay: Fluorescence quenching binding of P6 / NCp7 to fully modified hASL3^Lys; design: species or system human; conditions: FIGS. 5 and 6
From the text: (§1) The phage-display selection of peptides was completed (randomized 15 mers, and 16 mers with cysteines at two sites for the possible generation of Zn^+2 ‘knuckles’ structures reminiscent of the HIV protein, NCp7) against the fully modified anticodon stem and loop domain of htRNA3^Lys with 5-methoxycarbonylmethyl-2-thiouridine at position 34, 2-methylthio-N^6-threonylcarbamoyladenosine-37 and pseudouridine-39 (hASL3^Lys-mcm^5s^2U34;ms^2t^6A37;Ψ39) covalently attached to microtiter avidin-plates with biotin. In reiterative and competitive phage-display library selections, the two libraries yielded 20 recurring peptide sequences that had reasonable solubility among 155 sequenced clones (Table 2). The hASL3^Lys binding properties of the peptides were characterized using chemically synthesized peptides with an N-terminal fluorescent reporter. One strongly binding, highly specific peptide (P6) was selected. Its ability to mimic the binding of the natural HIV protein, NCp7, to modified htRNA3^Lys was validated. […] Footprinting of P6 on the modified hASL3^Lys by high resolution mass spectrometry indicated conclusively that the anticodon and 3′-adjacent side of the loop were protected (Graham et al., supra).

unmodified ASL3^Lys = assay: Fluorescence quenching binding of P6 / NCp7 to unmodified ASL3^Lys; design: species or system human; conditions: modification-dependency
From the text: as §1

[3] = tested on: hASL3^Lys-mcm^5s^2U34;ms^2t^6A37;Ψ39; assay: Mechanism based secondary (MBS) assay: competition with fluorescent peptide P6 for hASL3^Lys; type: binding, human; conditions: complex formation in the absence of small molecules
From the text: In order to identify a set of small molecule ‘hits’, that inhibit viral recruitment or viral preparation of htRNA3^Lys, the inventors developed a microtiter plate-based fluorescence assay. This mechanism based secondary (MBS) assay uses selected peptides that best mimic HIV proteins in their binding to htRNA3^Lys. The present invention uses the above-mentioned MBS assay to identify small molecule bioactive hits against a host cell RNA interaction with HIV proteins critical to viral replication. These hits can now be optimized into a completely different class of HIV drug, one that is far less likely to elicit drug resistance. The present invention is exploiting affinity selected peptides as tools to investigate and understand RNA chemistry and structure, including naturally occurring modifications, as identity elements for HIV protein recognition of the human tRNA3^Lys.
MBS assay is based on phage display selected peptides that mimic HIV proteins by binding with high affinity and specificity to only the portion of the htRNA3^Lys of interest, the hASL3^Lys (Graham et al., J. Mol. Biol. 2011, 410(4):698-715; Vendeix et al., J. Mol. Biol. 2012, 416(4):467-85). […] The MBS assay is readily amenable to thermodynamic and structural analyses and nucleotide and peptide amino acid changes for optimization. […]

[4] = Human immunodeficiency virus 1, NL43, read-out: IC 50 (units)

CC(C)c1ccc(OCC(=O)N2C(C)CCCC2C)c(Br)c1 (stereo not shown) [Compound 1668-1, 2-(2-bromo-4-isopropylphenoxy)-1-(2,6-dimethylpiperidin-1-yl)ethanone]
IC50 (HIV (strain NL4-3); [4]): 34 µM

CC1CCCC(C)N1C(=O)COc1ccc(C(C)(C)C)cc1Br (stereo not shown) [Compound 1668-12, 2-(2-bromo-4-tert-butylphenoxy)-1-(2,6-dimethylpiperidin-1-yl)ethanone]
Anti-HIV bioactivity of hits and analogs (HIV (strain NL4-3)): showed potential anti-HIV inhibition

CC1(C)CC(NC(=O)COc2ccc3ccccc3c2Br)CC(C)(C)N1 [Compound 1668-17, 2-(1-bromonapthalen-2-yloxy)-N-(2,2,6,6-tetramethylpiperidin-4-yl)acetamide]
Anti-HIV bioactivity of hits and analogs (HIV (strain NL4-3)): some of the most bioactive inhibitors

Cc1cc(NC(=O)C(=O)NC2CC(C)(C)NC(C)(C)C2)ccc1Br [Compound 1668-18, N^1-(4-bromo-3-methylphenyl)-N^2-(2,2,6,6-tetramethylpiperidin-4-yl)oxalimide]
Anti-HIV bioactivity of hits and analogs (HIV (strain NL4-3)): some of the most bioactive inhibitors | Inhibiting infection of HIV strains relative to no addition of drug [1]: particularly effective

NS(=O)(=O)c1cccc(NC(=O)Nc2ccc(Cl)c(Cl)c2)c1 [Compound 2491, 3-(3-(3,4-dichlorophenyl)ureido)benzenesulfon-amide]
IC50 (HIV (strain NL4-3); Human immunodeficiency virus 1, NL43, other small molecule table, assay not given, values lie in the CFAR range of b151, read-out: IC 50): 75 µM

COCCNC(=O)c1ccc2c(=O)n(CCC3=CCCCC3)c(=S)[nH]c2c1 [Compound 6188-1, 3-(2-cyclohexenylethyl)-N-(2-methoxyethyl)-4-oxo-2-thioxo-1,2,3,4-tetrahydroquinazoline-7-carboxamide]
IC50 (HIV (strain NL4-3); Human immunodeficiency virus 1, NL43, quinazoline table, assay not given, value lies in the CFAR range of b151, read-out: IC50): 3.3 µM

O=[N+]([O-])c1cccc(Nc2nc(O)nc(N3CCCCC3)n2)c1 [Compound 8391-5, 4-(3-nitrophenylamino)-6-(piperidin-1-yl)-1,3,5-triazin-2-ol]
Anti-HIV bioactivity of hits and analogs (HIV (strain NL4-3)): showed potential anti-HIV inhibition

c1ccc(Nc2nc(Nc3ccccc3)nc(N3CCNCC3)n2)cc1 [Compound 8391-6, N^2,N^4-diphenyl-6-(piperazin-1-yl)-1,3,5-triazine-2,4-diamine]
IC50 (HIV (strain NL4-3); [4]): 5.3 µM

COc1cc2c(cc1OC)C1=C(C#N)CC/C(=N\C(=O)c3ccco3)N1CC2 [Compound 18200-2, (E)-N-(1-cyano-9,10-dimethoxy-6,7-dihydro-2H-pyrido[2,1-a]isoquinolin-4(3H)-ylidene)furan-2-carboxamide]
Anti-HIV bioactivity of hits and analogs (HIV (strain NL4-3)): some of the most bioactive inhibitors

COc1cc2c(cc1OC)C1=C(C#N)CCC(=O)N1CC2 [Compound 18200-3, 9,10-dimethoxy-4-oxo-3,4,6,7-tetrahydro-2H-pyrido[2,1-a]isoquinoline-1-carbonitrile]
Anti-HIV bioactivity of hits and analogs (HIV (strain NL4-3)): some of the most bioactive inhibitors

COc1cc2c(cc1OC)C1=C(C#N)CC/C(=N\C(=O)c3ccc(Cl)cc3)N1CC2 [Compound 18200-4, (E)-4-chloro-N-(1-cyano-9,10-dimethoxy-6,7-dihydro-2H-pyrido[2,1-a]isoquinolin-4(3H)-ylidene)benzamide]
IC50 (HIV (strain NL4-3); Human immunodeficiency virus 1, NL43, isoquinoline table, assay not given, value lies in the CFAR range of b151, read-out: IC 50): 14 µM

RVTHHAFLGAHRTVG [Compound P6]
Effect on hASL3^Lys structure by circular dichroism (hASL3^Lys): denature the hASL3^Lys structure | Kd [2]: 0.45 ± 0.05 µM | Kd with unmodified ASL3^Lys (unmodified ASL3^Lys): incalculable | Quenching of the fluorescence of the fluorescein-tagged P6 by hASL3^Lys [3]: ~80%
